The source of these data is ChEMBL document CHEMBL1201862, “PubChem BioAssay data set” (2004).

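Protocol summary: plate cells (96-well), add compound at 5 concentrations, incubate 48 h, interpolate endpoints linearly. GI50: concentration for 50% inhibition of growth.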 Activity calls are given as the source filed them. No stated cut-off is given here; in the data, active = GI50 up to about 1.1 µM and inactive = higher.

Test systems include HOP-62; MDA-N; COLO 205; MDA-MB-231; RXF 393; MCF7; SF-295; OVCAR-4; HCT-15; SF-268; U-251; SR; UACC-62; SNB-75; SK-MEL-5; SW-620; CCRF-CEM; NCI-H460; HCC 2998.
Experiment in all cases: growth of human tumour cells (NCI), 48 h

`c1cc2c3c(c1)[C@@H]1O[C@@H]1c1cccc(c1-3)[C@@H]1O[C@H]21`: the GI50 is 27.7 µM (inactive) with HOP-62; 17.9 µM (inactive) in the test with MDA-N; 18.1 µM (inactive) in the test on COLO 205; 19.1 µM (inactive) in the test on MDA-MB-231; 2.93 µM (inactive) in the test with RXF 393; 10.1 µM (inactive) with MCF7. Besides, the GI50 in the test on SF-295 is 23.6 µM (inactive); in the test on OVCAR-4 it was 19.8 µM (inactive); in the test on HCT-15, 17.5 µM; in the test on SF-268, 16.3 µM (inactive); in the test with U-251, 16.9 µM (inactive); in the test on SR, 49.5 µM (inactive). For the same compound, the GI50 in the test on UACC-62 is 16.5 µM (inactive); in the test with SNB-75, 20.9 µM (inactive); in the test with SK-MEL-5, 17.9 µM (inactive).

Take `CN(CC(=O)O)c1ncc2c(n1)C=CCC2`: the GI50 in the test with SW-620, in the test with HOP-62, in the test on MDA-N, in the test with COLO 205, with MDA-MB-231 and in the test on CCRF-CEM was > 100 µM (inactive) throughout. In addition, the GI50 is > 100 µM (inactive) in the test on RXF 393; > 100 µM (inactive) in the test with MCF7; > 100 µM (inactive) with SF-295; > 100 µM (inactive) in the test on OVCAR-4; more than 100 µM in the test on HCT-15; > 100 µM (inactive) in the test on SF-268. Besides, the GI50 in the test with U-251, in the test with SR, with UACC-62, with NCI-H460, in the test with SNB-75 and in the test with SK-MEL-5 was > 100 µM (inactive) in each case.

Turning to `O=c1oc2ccccc2c2c(=O)c3ccc(OC/C(=N/O)c4ccc(Cl)cc4)cc3oc12`, the GI50 was 12.8 µM (inactive) in the test on SW-620; 15.1 µM (inactive) in the test with HOP-62; 3.57 µM (inactive) in the test with MDA-N; 15 µM (inactive) with COLO 205; 20.8 µM (inactive) in the test with MDA-MB-231; 28.3 µM (inactive) in the test on CCRF-CEM. Moreover, the GI50 with RXF 393 is 2.16 µM (inactive); in the test with MCF7, 5.83 µM (inactive); with SF-295 it was 1.89 µM (inactive); in the test on HCT-15, 7.4 µM; in the test with SF-268, 14.2 µM (inactive); in the test with U-251, 9.51 µM (inactive). For the same compound, the GI50 in the test with SR is 2.88 µM (inactive); in the test on UACC-62, 5.07 µM (inactive); in the test with NCI-H460, 11.9 µM (inactive); with SK-MEL-5, 5.05 µM (inactive).

Turning to `O=C1COC(c2ccccc2O)=NN1CCCN1CCCC1`, the GI50 in the test on SW-620, in the test with HOP-62, in the test with MDA-N, in the test with COLO 205, in the test with MDA-MB-231 and in the test on RXF 393 was > 100 µM (inactive) each time. In addition, the GI50 was > 100 µM (inactive) with MCF7; > 100 µM (inactive) with SF-295; > 100 µM (inactive) in the test with OVCAR-4; more than 100 µM in the test on HCT-15; > 100 µM (inactive) in the test with SF-268; > 100 µM (inactive) in the test on U-251. Moreover, the GI50 in the test with SR is 60.3 µM (inactive); in the test with UACC-62, > 100 µM (inactive); in the test with NCI-H460, > 100 µM (inactive); with SNB-75, > 100 µM (inactive); with SK-MEL-5, > 100 µM (inactive).

For `CC1NC(/C(=C/c2ccccc2O)NC(=O)c2ccccc2)OC1=O` (configuration not stated), the GI50 with SW-620 is > 50 µM (inactive); with HOP-62, 16.1 µM (inactive); in the test with MDA-N, 4.05 µM (inactive); with HCC 2998, > 50 µM (inactive); with COLO 205 it was > 50 µM (inactive); with MDA-MB-231, > 50 µM (inactive). The GI50 was > 50 µM (inactive) in the test on CCRF-CEM; 1.47 µM (inactive) with MCF7; > 50 µM (inactive) with SF-295; > 50 µM (inactive) in the test with OVCAR-4; 34.1 µM in the test on HCT-15; > 50 µM (inactive) in the test on U-251. Also, the GI50 in the test on SR was 2.52 µM (inactive); with UACC-62, > 50 µM (inactive); in the test with SNB-75, 13.9 µM (inactive); with SK-MEL-5, 39.7 µM (inactive).
